Measured values as given in patent US20060276440A1, “Treatment of inflammatory disorders” (priority 2005, published 2006).
“Also recorded” adds a separate entry of the source. Where two headings read alike, the source gives them in different places. Values belong to the molecule of their own block, whether it stands above or below them.

Assays:
Assay type in all cases: cell-based, human
OSM signaling = assay: […] 4A1 cell line (A549) OSM-stimulated luciferase reporter assay; settings: for IC50: Homo sapiens, A549; for effect on OSM-mediated reporter activity: up to 1.5 μM
Protocol: Cell line 4A1 was established in A549 cells (a human lung cancer cell line) using BV32, a vector that carries both the luciferase and GFP reporters. Assay development was performed to optimize the conditions of the OSM-response in the 4A1 […]® line.
(§1) Reporter activities of Sentinel® clones were measured using the Steady-Glo® Luciferase assay system (Promega, Madison, Wis.), according to the manufacturer's instructions, and were normalized to cell numbers based on nucleic acid quantification (CyQuant® cell proliferations assay, Molecular Probes/Invitrogen, Carlsbad, Calif.). In order to identify potential anti-inflammatory compounds, the OSM-responding Sentinel® clone 4A1 was used for a library screen of approximately 1800 compounds.

4A1 reporter activity = assay: Activation of 4A1 Sentinel luciferase reporter by cytokines; settings: for maximum activation of 4A1 luciferase reporter over background / EC50, induced reporter activity of 4A1: 4A1 cells; for EC50, induced reporter activity of 4A1: IL-1; for stimulatory effect on 4A1 reporter activity: other gp-130-binding cytokine family members, data not shown
Protocol: as §1
Sentinel lines were developed by utilizing promoter trapping technology in combination with positive and negative selections to efficiently deliver reporter genes into endogenously regulated genetic sites. Using this approach, a Sentinel cell line, 4A1, in A549 lung carcinoma cells that responded specifically to OSM and IL-1 stimulation among a panel of cytokines and active compounds was established (FIG. 9A).
OSM dose-dependently activated the luciferase reporter activity of 4A1 5-7 folds over background with EC50 of approximately 50 ng/ml (FIGS. 9A and B). […] When OSM and IL-1 were added together to 4A1 cells, the reporter activity appeared to be moderately more than the sum of individual activities obtained when OSM and IL-1 added separately (FIG. 9D). However, the luciferase activity of 4A1 appeared to respond predominantly to OSM, because OSM typically produced 5-7-fold maximum activation whereas IL-1 only produced 2-fold maximum activation (FIGS. 9B and C).

MMP-2 = MMP-2 production in SW1353 cells (ELISA, control); settings: SW-1353; FIG. 5
Protocol: MMP-2 production can be used as control for the potential side-effects of compounds. This is because MMP-2 levels are not believed to change in response to IL-1/OSM.
(§2) The same supernatants of culture media used in the primary screen were assayed for IL-1/OSM-stimulated pro-MMP-13 production and MMP-2 production by enzyme-linked immunosorbent assay (ELISA).
(§3) For matrix metalloproteinase (MMP) measures, SW1353 cells were grown to confluence in 24 well plates, washed in DMEM (with Ham's F12) and placed in 500 ul of serum free DMEM/F-12 with 0.2% lactalbumin hydrosylate with and without OsM/IL-1. After 24 hrs, supernatants were collected and the amounts of proMMP13, totalMMP2, and proMMP1 were measured using Quantikine® ELISA kit for human MMPs (R & D systems, Minneapolis, Minn.). All MMP measures were normalized to viable cell numbers based on a tetrazolium (MTS) colorimetric measure (Promega, Madison, Wis.).
Multiple control assays were performed to investigate the selectivity of CA4 action. Matrix metalloproteinase-2 (MMP-2) production in SW1353 cells was tested. Mutation of MMP-2 causes a multicentric osteolysis and arthritis syndrome (Martignetti et al., Nat Genet 28, 261-265 (2001) the entire contents of which are incorporated herein by reference), and theoretically its expression should not be affected in treating RA. CA4 at approximately 110 nM had no effect on production of MMP-2 (FIG. 12E). An A549 Sentinel line that responded to TGF-β was then tested.

MMP-13 = assay: IL-1/OSM-stimulated pro-MMP-13 production in SW-1353 cells (ELISA); settings: for IC50: Homo sapiens; for effect on OSM/IL-1-mediated pro-MMP-13 production: up to 1.5 μM
Text: To test the compounds identified in the preliminary reporter (luciferase) activity […]® line 4A1 screen for inhibition of OSM signaling in a more physiologically relevant environment, a human cell line involved in an inflammatory disease was adapted. The human cartilage cell line SW-1353 was selected.
In the human cartilage cell line SW-1353, while IL-1 is believed to activate expression of collagenases to a small degree and OSM is believed to have no effect on collagenase expression, a combination of IL-1 and OSM is believed to lead to a synergistic activation of collagenases to much higher levels (S. Cowell et al., Biochem J 331 (Pt 2), 453 (Apr. 15, 1998). Regulation of MMP-13 in SW-1353 cells is, therefore, believed to provide a biomarker which can be used to monitor IL-1/OSM-mediated signal transduction events in secondary assays.
as §2, §3

[1] = 4A1 cell line, primary screen (Table 1), read-out: IC50, inhibition of OSM-stimulated (luciferase) reporter activity
[2] = 4A1 cells, mean (Examples 7, 10), read-out: IC50 values by luciferase reporter activity (OSM-stimulated)
[3] = SW1353 cells, mean (Examples 8, 10), read-out: IC50 values by pro-MMP-13 (OSM/IL-1-mediated production)

Molecule: COc1cccc(-c2cc(=O)c3ccccc3o2)c1N [PD98059, reference compound]
effect of pathway inhibitors on OSM-stimulated reporter activity (OSM signaling; 4A1 cells, FIG. 10A-E): inhibited the reporter activity in a dose-dependent manner

Molecule: C=C1C(=O)[C@@]23[C@H](O)C[C@@H]4C(C)(C)CC[C@H](O)[C@@]4(CO)[C@@H]2CC[C@@H]1[C@H]3O [Kamebakaurin, reference compound]
effect of pathway inhibitors on OSM-stimulated reporter activity (OSM signaling; 4A1 cells, FIG. 10A-E): inhibited the reporter activity in a dose-dependent manner

Molecule: cytochalacin D [reference compound]
effect on OSM-mediated reporter activity (OSM signaling; 4A1 cells, data not shown): did not have effect | effect on OSM/IL-1-mediated pro-MMP-13 production (MMP-13; SW1353 cells, data not shown): did not have effect

Molecule: C[S+]([O-])c1ccc(-c2nc(-c3ccncc3)c(-c3ccc(F)cc3)[nH]2)cc1 (stereo not shown) [SB203580, reference compound]
effect of pathway inhibitors on OSM-stimulated reporter activity (OSM signaling): inhibited the reporter activity in a dose-dependent manner

Molecule: COC(=O)Nc1nc2cc(Sc3ccccc3)ccc2[nH]1 [Fenbendazole (6), [5-(phenylthio)-1H-benzimidazol-2-yl]carbamic acid methyl ester]
IC50 (OSM signaling; [1]): 800 nM

Molecule: JAK inhibitor I [reference compound]
effect of pathway inhibitors on OSM-stimulated reporter activity (OSM signaling; 4A1 cells, FIG. 10A-E): inhibited the reporter activity in a dose-dependent manner

Molecule: cytochalacin B [reference compound]
effect on OSM-mediated reporter activity (OSM signaling; 4A1 cells, data not shown): did not have effect | effect on OSM/IL-1-mediated pro-MMP-13 production (MMP-13; SW1353 cells, data not shown): did not have effect

Molecule: COc1cc2c(c(OC)c1OC)-c1ccc(OC)c(=O)cc1[C@@H](NC(C)=O)CC2 (atropisomer, axis not shown) [Colchicine (4), colchicine]
reduction of signal (MMP-13 secondary assay) (MMP-13; at 4 μM, SW-1353): approximately 83%

Molecule: CC(=O)O[C@H]1C(=O)[C@@]2(C)[C@H]([C@H](OC(=O)c3ccccc3)[C@]3(O)C[C@H](OC(=O)[C@H](O)[C@@H](NC(=O)c4ccccc4)c4ccccc4)C(C)=C1C3(C)C)[C@]1(OC(C)=O)CO[C@@H]1C[C@@H]2O [Taxol, reference compound]
effect on 4A1 reporter activity (OSM signaling; under 200 nM, data not shown): dose-dependently inhibited | effect on MMP-13 production (MMP-13; data not shown): no effect

Molecule: IL-6: member of the gp-130-binding cytokine family
stimulatory effect on 4A1 reporter activity (4A1 reporter activity): no stimulatory effect

Molecule: COc1cc([C@@H]2c3cc4c(cc3[C@H](O)[C@H]3COC(=O)[C@H]23)OCO4)cc(OC)c1OC [Podophyllotoxin, reference compound]
IC50 (OSM signaling; [2]): 277 nM | IC50 (MMP-13; [3]): 54.9 nM

Molecule: COC(=O)Nc1nc2ccc(C(=O)c3cccs3)cc2[nH]1 [Nocodazole, reference compound]
IC50 (OSM signaling; [2]): 104 nM | IC50 (MMP-13; [3]): > 400 nM

Further lines, with some results ahead:

IC50 (OSM signaling; [1]): 20 nM
Molecule: COc1c(C)c2c(c(O)c1C/C=C(\C)CCC(=O)O)C(=O)OC2 [Mycophenolic acid (3), 6-(4-Hydroxy-6-methoxy-7-methyl-3-oxo-5-phthalanyl)-4-methyl-4-hexenoic acid]

maximum activation of 4A1 luciferase reporter over background (4A1 reporter activity): 2 fold | EC50, induced reporter activity of 4A1 (4A1 reporter activity): 0.028 ± 0.01 ng/mL | EC50, induced reporter activity of 4A1 (4A1 reporter activity; listed as IL-1): 0.028 ng/mL
Molecule: IL-1β: cytokine from Peprotech used to stimulate cells

IC50 (MMP-13; SW1353, SW-1353, IL-1/OSM-stimulated, secondary screen (Example 2), read-out: IC50, inhibition of MMP-13 (pro-MMP-13) production): 32000 nM
Molecule: Cc1ccc(C(=O)Cn2c3c(sc2=N)CCCC3)cc1 [Pifithrine-alpha (12), 2-(2-imino-4,5,6,7-tetrahydrobenzothiazol-3-yl)-1-p-tolylethanone]
inhibitory effect on MMP-13 expression compared to MMP-2 expression (MMP-2): greater inhibitory effects on MMP-13 expression compared to MMP-2 expression; also recorded: preferentially inhibit MMP-13 expression compared to MMP-2 expression

maximum activation of 4A1 luciferase reporter over background (4A1 reporter activity): 5-7 fold
Molecule: OSM: proinflammatory cytokine, 28-kD glycoprotein of the gp130-binding cytokine family

IC50 (OSM signaling; [1]): 3500 nM
Molecule: C/C=C(/C(=C/C)c1ccc(O)cc1)c1ccc(O)cc1 [Dienestrol (10), 4-((2E,4E)-4-(4-hydroxyphenyl)hexa-2,4-dien-3-yl)phenol]

IC50 (OSM signaling; [2]): 3.4 ± 0.6 nM | IC50 (MMP-13; [3]): 11.6 ± 5.2 nM
Molecule: CC[C@]1(O)C[C@@H]2CN(CCc3c([nH]c4ccccc34)[C@@](C(=O)OC)(c3cc4c(cc3OC)N(C)[C@H]3[C@@](O)(C(=O)OC)[C@H](OC(C)=O)[C@]5(CC)C=CCN6CC[C@]43[C@@H]65)C2)C1 [Vinbalstine, vinblastine, reference compound]

stimulatory effect on 4A1 reporter activity (4A1 reporter activity): no stimulatory effect
Molecule: LIF: member of the gp-130-binding cytokine family

IC50 (OSM signaling; [1]): 1900 nM
Molecule: CC1CCC2(C)CCC3C(=CCC4(C)C3CCC3C(C)(C(=O)O)C(C)CCC34C)C2C1C (stereo not drawn) [β-boswellic acid (7), 1,2,3,4,4a, 5,6,6a, 6b, 7,8,8a, 9, 10, 11, 12, 12a, 14, 14a, 14b-icosahydro-3,4,8a,11,12,14a,14b-heptamethylpicene-4-carboxylic acid]

IC50 (OSM signaling; [1]): 3700 nM
Molecule: O=c1oc2ccccc2c(O)c1Cc1c(O)c2ccccc2oc1=O [Dicumarol (11), 4-hydroxy-3-((4-hydroxy-2-oxo-2H-chromen-3-yl)methyl)-2H-chromen-2-one]

IC50 (OSM signaling; [1]): 400 nM
Molecule: Clc1ccc2ncnc(NCc3ccc4c(c3)OCO4)c2c1 [MBCQ (5), 4-[[3,4-(Methylenedioxy)benzyl]amino]-6-chloroquinazoline]

stimulatory effect on 4A1 reporter activity (4A1 reporter activity): no stimulatory effect
B1: CNTF: member of the gp-130-binding cytokine family (protein, UniProt P26441 1-200, looked up)
Ciliary neurotrophic factor: MAFTEHSPLTPHRRDLCSRSIWLARKIRSDLTALTESYVKHQGLNKNINLDSADGMPVASTDQWSELTEAERLQENLQAYRTFHVLLARLLEDQQVHFTPTEGDFHQAIHTLLLQVAAFAYQIEELMILLEYKIPRNEADGMPINVGDGGLFEKKLWGLKVLQELSQWTVRSIHDLRFISSHQTGIPARGSHYIANNKKM

stimulatory effect on 4A1 reporter activity (4A1 reporter activity): no stimulatory effect
B2: CT-1: member of the gp-130-binding cytokine family (protein, UniProt Q16619 1-201, looked up)
Cardiotrophin-1: MSRREGSLEDPQTDSSVSLLPHLEAKIRQTHSLAHLLTKYAEQLLQEYVQLQGDPFGLPSFSPPRLPVAGLSAPAPSHAGLPVHERLRLDAAALAALPPLLDAVCRRQAELNPRAPRLLRRLEDAARQARALGAAVEALLAALGAANRGPRAEPPAATASAASATGVFPAKVLGLRVCGLYREWLSRTEGDLGQLLPGGSA

stimulatory effect on 4A1 reporter activity (4A1 reporter activity): no stimulatory effect
B3: IL-11: member of the gp-130-binding cytokine family (protein, UniProt P20809 22-199, looked up)
Interleukin-11: PGPPPGPPRVSPDPRAELDSTVLLTRSLLADTRQLAAQLRDKFPADGDHNLDSLPTLAMSAGALGALQLPGVLTRLRADLLSYLRHVQWLRRAGGSSLKTLEPELGTLQARLDRLLRRLQLLMSRLALPQPPPDPPAPPLAPPSSAWGGIRAAHAILGGLHLTLDWAVRGLLLLKTRL
